Source: patent publication US5154929A, “Percutaneous absorption type preparation and process for preparing the same” (Nitto Denko Corporation, priority 1988, dated 1992)

Experiment: Saturated solubility of the drug in the pressure-sensitive adhesive

Row | Compound | Saturated Solubility (in adhesive of Comparative Example 3 (nonylacrylate 75, ethoxyethylacrylate 15, vinyl acetate 10)) [%] | Saturated Solubility (in adhesive of Comparative Example 4 (nonylacrylate 60, ethoxyethylacrylate 20, vinyl acetate 20)) [%] | Saturated Solubility (in adhesive of Example 3 (nonylacrylate 75, ethoxyethylacrylate 15, vinyl acetate 10)) [%] | Saturated Solubility (in adhesive of Comparative Example 5 (2-ethylhexylacrylate 85, N-vinyl-2-pyrrolidone 15)) [%] | Saturated Solubility (in adhesive of Comparative Example 6 (2-ethylhexylacrylate 75, N-vinyl-2-pyrrolidone 25)) [%] | Saturated Solubility (in adhesive of Example 4 (2-ethylhexylacrylate 85, N-vinyl-2-pyrrolidone 15)) [%]
1 | CN1C(=O)CN=C(c2ccccc2F)c2cc([N+](=O)[O-])ccc21 [Flunitrazepam] | 3.5 | 4 | 3.5 |  |  | 
2 | CC(C)NCC(O)COc1cccc2[nH]ccc12 (stereo not drawn) [Pindolol] |  |  |  | 7 | 6 | 7
